Source: patent publication US11033539B2, “Compounds of formulas (VII), (VIII), (IX), (XI), (XII), (XIII), and (XIV) as muscarinic receptor 4(M4) antagonists for treating neurological diseases” (Neurocrine Biosciences, Inc., priority 2015, dated 2021)
pKi: −log10 of the molar value.

How the values were obtained:
human M5 receptor = human M5 receptor (Homo sapiens (Human), UniProt P08912); experiment: Radioligand (tritiated N-methylscopolamine) binding assay, M5; settings: CHO cell membranes expressing human M5; 1.5 nM tritiated N-methylscopolamine; 90 min, 37° C.; read-out: Ki against M5 receptor (Table 21, M5)
Chain of human M5 receptor (P08912 whole entry): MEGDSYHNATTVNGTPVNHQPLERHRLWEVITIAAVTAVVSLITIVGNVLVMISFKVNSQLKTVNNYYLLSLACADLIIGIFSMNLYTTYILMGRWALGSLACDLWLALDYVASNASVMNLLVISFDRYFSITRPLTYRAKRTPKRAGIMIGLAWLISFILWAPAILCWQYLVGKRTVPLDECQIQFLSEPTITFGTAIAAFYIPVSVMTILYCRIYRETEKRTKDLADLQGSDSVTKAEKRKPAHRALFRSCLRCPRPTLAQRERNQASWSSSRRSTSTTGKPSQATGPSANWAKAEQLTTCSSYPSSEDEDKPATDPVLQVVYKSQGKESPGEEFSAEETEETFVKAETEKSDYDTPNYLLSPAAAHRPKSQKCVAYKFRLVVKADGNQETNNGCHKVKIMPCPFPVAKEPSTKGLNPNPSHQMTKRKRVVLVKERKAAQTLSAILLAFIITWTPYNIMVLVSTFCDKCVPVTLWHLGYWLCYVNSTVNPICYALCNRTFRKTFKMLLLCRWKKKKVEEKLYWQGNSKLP
Method: (§1) Binding affinity (Ki) of compounds was measured by inhibition of radioligand binding to membranes from CHO cells expressing human M1, M2, M3, M4 and M5 receptors. Membranes were prepared by nitrogen cavitation and differential centrifugation as previously described (Hoare et al., Mol. Pharmacol. 2003 March; 63(3): 751-65). The radioligand employed was tritiated N-methylscopolamine, used at a concentration of 1.5 nM. A dose-response of twelve concentrations of compound was used, ranging from 10 μM to […]. The assay buffer was 50 mM HEPES, 100 mM NaCl, 5 mM MgCl2, 1 mM ethylenediaminetetraacetic acid, pH-adjusted to pH 7.4. Membranes, radioligand and compound were incubated together for 90 minutes at 37° C., in a total volume of 150 μl in a 96-well plate. Receptor-bound radioligand was then collected by harvesting the assay over glass fiber filters pretreated with polyethylenimine to trap the cell membranes, using rapid vacuum filtration. Harvesting and radioactivity counting was conducted as previously described (see, e.g., Hoare et al., Mol. Pharmacol. 2003 63(3):751-65); Erratum at Mol. Pharmacol. 2005 July; 68(1): 260).

human M3 receptor = human M3 receptor (Homo sapiens (Human), UniProt P20309); experiment: Radioligand (tritiated N-methylscopolamine) binding assay, M3; settings: CHO cell membranes expressing human M3; 1.5 nM tritiated N-methylscopolamine; 90 min, 37° C.; read-out: Ki against M3 receptor (Table 21, M3)
Chain of human M3 receptor (P20309 whole entry): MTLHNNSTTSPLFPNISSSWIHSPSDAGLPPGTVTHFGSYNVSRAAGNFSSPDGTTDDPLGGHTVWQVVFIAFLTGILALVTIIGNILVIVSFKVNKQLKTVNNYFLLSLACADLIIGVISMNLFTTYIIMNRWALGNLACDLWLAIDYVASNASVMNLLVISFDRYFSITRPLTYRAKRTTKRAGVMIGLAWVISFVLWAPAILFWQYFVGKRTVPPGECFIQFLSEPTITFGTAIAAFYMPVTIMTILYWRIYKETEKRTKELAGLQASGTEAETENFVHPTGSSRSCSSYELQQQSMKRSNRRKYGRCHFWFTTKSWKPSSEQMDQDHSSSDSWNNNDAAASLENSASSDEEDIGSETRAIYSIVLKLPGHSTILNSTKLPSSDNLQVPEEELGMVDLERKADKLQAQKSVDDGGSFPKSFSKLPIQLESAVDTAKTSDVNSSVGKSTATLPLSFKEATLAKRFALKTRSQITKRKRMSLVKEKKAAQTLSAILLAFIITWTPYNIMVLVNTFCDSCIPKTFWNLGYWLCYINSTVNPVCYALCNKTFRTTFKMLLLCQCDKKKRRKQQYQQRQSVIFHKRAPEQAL
Method: as §1

human M4 receptor = human M4 receptor (Homo sapiens (Human), UniProt P08173); experiment: Radioligand (tritiated N-methylscopolamine) binding assay, M4; settings: Ki against the M4 receptor; membranes from CHO cells expressing human M4; tritiated N-methylscopolamine 1.5 nM; read-out: Ki
Chain of human M4 receptor (P08173 whole entry): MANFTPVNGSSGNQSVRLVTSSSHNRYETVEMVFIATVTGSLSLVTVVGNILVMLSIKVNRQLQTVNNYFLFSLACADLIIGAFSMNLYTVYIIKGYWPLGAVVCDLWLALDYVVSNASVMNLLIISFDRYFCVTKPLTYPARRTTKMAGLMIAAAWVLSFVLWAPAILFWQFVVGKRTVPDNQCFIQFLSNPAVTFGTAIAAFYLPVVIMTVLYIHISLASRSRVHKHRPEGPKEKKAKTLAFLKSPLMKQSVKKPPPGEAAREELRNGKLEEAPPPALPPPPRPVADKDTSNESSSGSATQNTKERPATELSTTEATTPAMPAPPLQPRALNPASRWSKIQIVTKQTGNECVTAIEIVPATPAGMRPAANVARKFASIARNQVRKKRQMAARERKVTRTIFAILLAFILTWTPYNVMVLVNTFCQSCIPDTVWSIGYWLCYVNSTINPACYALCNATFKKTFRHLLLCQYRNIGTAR
Method in brief: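 CHO membranes; 1.5 nM radioligand; 12-point compound dose-response, 10 μM to […]; HEPES/NaCl/MgCl2/EDTA buffer pH 7.4; 90 min, 37 °C. PEI-treated glass fiber filtration, radioactivity counting. Ki from inhibition of binding.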

human M1 receptor = human M1 receptor (Homo sapiens (Human), UniProt P11229); experiment: Radioligand (tritiated N-methylscopolamine) binding assay, M1; settings: CHO cell membranes expressing human M1; 1.5 nM tritiated N-methylscopolamine; 90 min, 37° C.; read-out: Ki against M1 receptor (Table 21, M1)
Chain of human M1 receptor (P11229 whole entry): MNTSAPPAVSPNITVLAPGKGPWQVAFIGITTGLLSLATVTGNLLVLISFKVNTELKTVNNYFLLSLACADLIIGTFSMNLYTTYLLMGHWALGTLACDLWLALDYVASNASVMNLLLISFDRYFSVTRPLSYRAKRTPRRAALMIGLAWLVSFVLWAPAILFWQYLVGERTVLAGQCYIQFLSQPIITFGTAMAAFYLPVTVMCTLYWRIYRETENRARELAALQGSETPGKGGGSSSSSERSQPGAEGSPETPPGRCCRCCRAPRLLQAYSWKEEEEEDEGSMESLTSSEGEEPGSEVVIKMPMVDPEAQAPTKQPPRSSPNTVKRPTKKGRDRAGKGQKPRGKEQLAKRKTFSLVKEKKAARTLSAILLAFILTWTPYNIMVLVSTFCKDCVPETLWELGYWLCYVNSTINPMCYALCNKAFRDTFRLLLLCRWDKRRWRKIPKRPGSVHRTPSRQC
Method: as §1

human M2 receptor = human M2 receptor (Homo sapiens (Human), UniProt P08172); experiment: Radioligand (tritiated N-methylscopolamine) binding assay, M2; settings: CHO cell membranes expressing human M2; 1.5 nM tritiated N-methylscopolamine; 90 min, 37° C.; read-out: Ki against M2 receptor (Table 21, M2)
Chain of human M2 receptor (P08172 whole entry): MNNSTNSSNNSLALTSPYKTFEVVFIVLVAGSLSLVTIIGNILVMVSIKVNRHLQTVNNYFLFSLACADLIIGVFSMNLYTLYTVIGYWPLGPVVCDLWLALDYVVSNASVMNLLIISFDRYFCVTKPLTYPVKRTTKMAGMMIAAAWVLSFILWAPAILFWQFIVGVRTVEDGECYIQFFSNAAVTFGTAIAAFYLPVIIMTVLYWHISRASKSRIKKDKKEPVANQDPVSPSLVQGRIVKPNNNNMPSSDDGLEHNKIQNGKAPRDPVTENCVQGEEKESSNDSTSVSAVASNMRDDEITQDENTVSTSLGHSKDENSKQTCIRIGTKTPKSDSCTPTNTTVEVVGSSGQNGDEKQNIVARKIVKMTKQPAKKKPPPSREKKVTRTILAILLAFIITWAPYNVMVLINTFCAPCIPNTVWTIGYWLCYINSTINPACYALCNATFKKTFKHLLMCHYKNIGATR
Method: as §1

Compound	pKi (human M5 receptor)	pKi (human M3 receptor)	pKi (human M4 receptor)	pKi (human M1 receptor)	pKi (human M2 receptor)
C[C@@H]1CN(c2ccc(OC(F)(F)F)c(C#N)c2)CCN1C(=O)NCCC1CCN(Cc2ccccc2)CC1 [3-1, (2R)-N-[2-(1-benzylpiperidin-4-yl)ethyl]-4-[3-cyano-4-(trifluoromethoxy)phenyl]-2-methylpiperazine-1-carboxamide]	< 6.00	< 6.00	> 8.00	6.00 to 7.00	7.00 to 8.00
C[C@@H]1CN(c2ccc(OC(F)(F)F)c(C#N)c2)CCN1C(=O)NCCC1(O)CCN(Cc2ccccc2)CC1 [3-5, (2R)-N-[2-(1-benzyl-4-hydroxypiperidin-4-yl)ethyl]-4-[3-cyano-4-(trifluoromethoxy)phenyl]-2-methylpiperazine-1-carboxamide]	< 6.00	< 6.00	> 8.00	< 6.00	6.00 to 7.00
C[C@@H]1CN(c2ccc(OC(F)(F)F)nc2)CCN1C(=O)NCCC1CCN(Cc2ccccc2)CC1 [3-8, (2R)-N-[2-(1-benzylpiperidin-4-yl)ethyl]-2-methyl-4-[6-(trifluoromethoxy)pyridin-3-yl]piperazine-1-carboxamide]	< 6.00	6.00 to 7.00	> 8.00	6.00 to 7.00	7.00 to 8.00
C[C@@H]1CN(c2ncc(C(F)(F)F)cn2)CCN1C(=O)NCCC1CCN(Cc2ccccc2)CC1 [3-9, (2R)-N-[2-(1-benzylpiperidin-4-yl)ethyl]-2-methyl-4-[5-(trifluoromethyl)pyrimidin-2-yl]piperazine-1-carboxamide]	< 6.00	6.00 to 7.00	> 8.00	6.00 to 7.00	7.00 to 8.00
C[C@@H]1CN(c2ncc(C(F)(F)F)cc2F)CCN1C(=O)NCCC1CCN(Cc2ccccc2)CC1 [3-10, (2R)-N-[2-(1-benzylpiperidin-4-yl)ethyl]-4-[3-fluoro-5-(trifluoromethyl)pyridin-2-yl]-2-methylpiperazine-1-carboxamide]	< 6.00	6.00 to 7.00	> 8.00	6.00 to 7.00	7.00 to 8.00
C[C@@H]1CN(c2ccc3c(c2)OC(F)(F)O3)CCN1C(=O)NCCC1CCN(Cc2ccccc2)CC1 [4-6, (2R)-N-[2-(1-benzylpiperidin-4-yl)ethyl]-4-(2,2-difluoro-2H-1,3-benzodioxol-5-yl)-2-methylpiperazine-1-carboxamide]	< 6.00		> 8.00	6.00 to 7.00	7.00 to 8.00
C[C@@H]1CN(c2nccc(C#N)n2)C[C@H](C)N1C(=O)NCCC1CCN(Cc2ccccc2)CC1 [4-14, (2S,6R)-N-[2-(1-benzylpiperidin-4-yl)ethyl]-4-(4-cyanopyrimidin-2-yl)-2,6-dimethylpiperazine-1-carboxamide]	< 6.00		> 8.00	< 6.00	6.00 to 7.00
C[C@@H]1CN(c2cccc(OC(F)(F)F)c2)CCN1C(=O)NCCC1CCN(Cc2ccccc2)CC1 [4-16, (2R)-N-[2-(1-benzylpiperidin-4-yl)ethyl]-2-methyl-4-[3-(trifluoromethoxy)phenyl]piperazine-1-carboxamide]	< 6.00		> 8.00	6.00 to 7.00	6.00 to 7.00
C[C@@H]1CN(c2ncc(C#N)c(N)n2)C[C@H](C)N1C(=O)NCCC1CCN(Cc2ccccc2)CC1 [4-54, (2S,6R)-4-(4-amino-5-cyanopyrimidin-2-yl)-N-[2-(1-benzylpiperidin-4-yl)ethyl]-2,6-dimethylpiperazine-1-carboxamide]	< 6.00	< 6.00		6.00 to 7.00	6.00 to 7.00
C[C@@H]1CN(c2cc(F)cc(F)c2)CCN1C(=O)NCCC1CCN(Cc2ccccc2)CC1 [4-72, (2R)-N-[2-(1-benzylpiperidin-4-yl)ethyl]-4-(3,5-difluorophenyl)-2-methylpiperazine-1-carboxamide]	< 6.00		> 8.00	6.00 to 7.00	6.00 to 7.00
C[C@@H]1CN(c2ncc(C#N)c(N)n2)C[C@H](C)N1C(=O)NCCC1CCN(Cc2ccccc2)CC1 [5-14, (2S,6R)-4-(4-amino-5-cyanopyrimidin-2-yl)-N-[2-(1-benzylpiperidin-4-yl)ethyl]-2,6-dimethylpiperazine-1-carboxamide]			> 8.00	6.00 to 7.00	6.00 to 7.00
O=C(NCCC1CCN(Cc2ccccc2)CC1)c1ccc(-c2ccc(OC(F)(F)F)cc2)cc1 [9-70, N-[2-(1-benzylpiperidin-4-yl)ethyl]-4-[4-(trifluoromethoxy)phenyl]benzamide]				6.00 to 7.00	6.00 to 7.00
O=C(NCC(O)C1CCN(Cc2ccccc2)CC1)C1CCN(c2ccc(OC(F)(F)F)cc2)CC1 (centres unmarked) [9-71, N-[2-(1-benzylpiperidin-4-yl)-2-hydroxyethyl]-1-[4-(trifluoromethoxy)phenyl]piperidine-4-carboxamide]					6.00 to 7.00
O=C(NCCC1(O)CCN(Cc2ccccc2)CC1)C1CCN(c2ccc(OC(F)(F)F)c(F)c2)CC1 [9-72, N-[2-(1-benzyl-4-hydroxypiperidin-4-yl)ethyl]-1-[3-fluoro-4-(trifluoromethoxy)phenyl]piperidine-4-carboxamide]				6.00 to 7.00	6.00 to 7.00
CC1CN(c2ccc(OC(F)(F)F)cc2)CCC1C(=O)NCCC1CCN(Cc2ccccc2)CC1 (centres unmarked) [10-42, N-[2-(1-benzylpiperidin-4-yl)ethyl]-3-methyl-1-[4-(trifluoromethoxy)phenyl]piperidine-4-carboxamide]				6.00 to 7.00	6.00 to 7.00
O=C(NCCC1CCN(Cc2ccccc2)CC1)C1CCN(c2cc(F)c(F)c(F)c2)CC1 [10-43, N-[2-(1-benzylpiperidin-4-yl)ethyl]-1-(3,4,5-trifluorophenyl)piperidine-4-carboxamide]					6.00 to 7.00
O=C(NCCC1CCN(Cc2ccccc2)CC1)C1CCN(c2ccc(OC(F)(F)F)c(F)c2)CC1 [10-44, N-[2-(1-benzylpiperidin-4-yl)ethyl]-1-[3-fluoro-4-(trifluoromethoxy)phenyl]piperidine-4-carboxamide]					6.00 to 7.00
C[C@@H]1CN(c2ncc(C#N)cn2)C[C@H](C)N1C(=O)NCCC1CCN(Cc2ccccc2)CC1 [21-2, (2R,6S)-4-(5-cyanopyrimidin-2-yl)-2,6-dimethyl-N-(2-{1-[α,α-^2H-benzyl]piperidin-4-yl}ethyl)piperazine-1-carboxamide]	< 6.00	< 6.00	> 8.00	< 6.00	
C[C@@H]1CN(c2ncc(C(F)(F)F)cn2)CCN1C(=O)NCCC1CCN(Cc2ccccc2)CC1 [21-14, (2R)-2-methyl-N-(2-{1-[α,α-^2H-benzyl]piperidin-4-yl}ethyl)-4-[5-(trifluoromethyl)pyrimidin-2-yl]piperazine-1-carboxamide]		6.00 to 7.00			
C[C@@H]1CN(c2ncc(C#N)cn2)C[C@H](C)N1C(=O)NCCC1CCN(Cc2ccccc2)CC1 [21-15, (2R,6S)-4-(5-cyanopyrimidin-2-yl)-2,6-dimethyl-N-(2-{1-[α,α-^2H-benzyl]piperidin-4-yl}ethyl)piperazine-1-carboxamide]	< 6.00	< 6.00	> 8.00	< 6.00	
C[C@@H]1CN(c2ncc(C(F)(F)F)c(N)n2)CCN1C(=O)NCCC1CCN(Cc2ccccc2)CC1 [21-16, (2R)-4-[4-amino-5-(trifluoromethyl)pyrimidin-2-yl]-2-methyl-N-(2-{1-[α,α-^2H-benzyl]piperidin-4-yl}ethyl)piperazine-1-carboxamide]	6.00 to 7.00	7.00 to 8.00	> 8.00		> 8.00
C[C@@H]1CN(c2ncc(C(F)(F)F)c(N)n2)CCN1C(=O)NCCC1CCN(Cc2ccccc2)CC1 [21-17, (2R)-4-[4-amino-5-(trifluoromethyl)pyrimidin-2-yl]-2-methyl-N-(2-{1-[α,α-^2H-benzyl]piperidin-4-yl}ethyl)piperazine-1-carboxamide]	6.00 to 7.00	7.00 to 8.00	> 8.00		> 8.00
N-{2-[1-(2,2-dimethylpropyl)piperidin-4-yl]ethyl}-1-[4-(trifluoromethoxy)phenyl]piperidine-4-carboxamide [11-27]			6.00 to 7.00		
N-{2-[1-(2-hydroxy-1-phenylethyl)piperidin-4-yl]ethyl}-1-[4-(trifluoromethoxy)phenyl]piperidine-4-carboxamide [11-12]			6.00 to 7.00		
N-{2-[1-(3-methylbutyl)piperidin-4-yl]ethyl}-1-[4-(trifluoromethoxy)phenyl]piperidine-4-carboxamide [11-19]			6.00 to 7.00		
